We go through 26 compounds from patent publication US20250282776A1, “Bicyclic TLR7 Agonists and Uses Thereof” (Bristol-Myers Squibb Company, priority 2024, published 2025).

The target in one assay is T1, human TLR7 (hTLR7) (Homo sapiens, UniProt Q9NYK1).
T1 construct: host or cells: HEK-Blue TLR7 cells (engineered human embryonic kidney cells)
T1 sequence (Q9NYK1 27-1049): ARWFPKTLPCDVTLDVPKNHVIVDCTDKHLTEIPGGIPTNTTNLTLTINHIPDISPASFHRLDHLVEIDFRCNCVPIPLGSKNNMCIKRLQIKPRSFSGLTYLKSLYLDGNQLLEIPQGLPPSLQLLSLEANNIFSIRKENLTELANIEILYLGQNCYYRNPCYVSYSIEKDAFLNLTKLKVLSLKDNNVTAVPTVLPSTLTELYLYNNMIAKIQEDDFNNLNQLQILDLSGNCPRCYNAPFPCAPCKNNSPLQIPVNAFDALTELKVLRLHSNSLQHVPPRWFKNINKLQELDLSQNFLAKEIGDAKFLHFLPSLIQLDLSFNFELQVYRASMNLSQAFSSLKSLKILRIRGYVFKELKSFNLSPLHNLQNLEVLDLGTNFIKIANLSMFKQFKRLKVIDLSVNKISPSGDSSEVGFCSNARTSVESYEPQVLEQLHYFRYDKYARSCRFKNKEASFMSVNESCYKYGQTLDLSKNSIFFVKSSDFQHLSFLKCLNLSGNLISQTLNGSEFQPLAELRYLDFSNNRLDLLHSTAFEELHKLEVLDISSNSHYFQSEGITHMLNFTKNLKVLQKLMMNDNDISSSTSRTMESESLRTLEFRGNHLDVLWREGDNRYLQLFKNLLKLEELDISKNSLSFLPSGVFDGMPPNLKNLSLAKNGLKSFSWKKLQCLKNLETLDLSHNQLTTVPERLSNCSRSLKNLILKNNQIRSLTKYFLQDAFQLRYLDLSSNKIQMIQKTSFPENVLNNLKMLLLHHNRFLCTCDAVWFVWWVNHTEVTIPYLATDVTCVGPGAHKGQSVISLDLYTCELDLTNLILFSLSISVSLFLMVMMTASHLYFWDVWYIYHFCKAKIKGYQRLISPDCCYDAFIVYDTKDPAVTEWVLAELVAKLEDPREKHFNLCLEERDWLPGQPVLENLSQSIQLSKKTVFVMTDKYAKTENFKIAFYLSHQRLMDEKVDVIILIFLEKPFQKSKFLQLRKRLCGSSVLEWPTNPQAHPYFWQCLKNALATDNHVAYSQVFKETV
Nature of the assay: Human TLR7 agonist activity assay (HEK-Blue TLR7 SEAP reporter). In kind it is cell-based. As to conditions: HEK-Blue TLR7 cells, 18 h incubation, Quanti-Blue, OD 620 nm, some values average of multiple measurements. On the procedure: (§1) This procedure describes a method for assaying human TLR7 (hTLR7) and human TLR8 (hTLR8) agonist activity of the compounds disclosed herein.
HEK-Blue™ TLR7 cells were added to each well of a 384-well tissue-culture plate (15,000 cells per well) and incubated 16-18 h at 37° C., 5% CO2. Compounds (100 nL) were dispensed into wells containing the HEK-Blue™ TLR cells and the treated cells were incubated at 37° C., 5% CO2. After 18 h, ten microliters 5 of freshly prepared Quanti-Blue™ reagent (Invivogen) was added to each well and incubated for 30 min (37° C., […]). SLAP levels were measured using an Envision plate reader (OD=620 nm). The half maximal effective concentration values (ECSO; compound concentration which induced a response halfway between the assay baseline and maximum) were calculated. Some of the reported activities were the average of multiple measurements.

In the next assay the target is T2, human TLR8 (hTLR8) (Homo sapiens, UniProt Q9NR97).
T2 construct: expressed in transfected cells
T2 sequence (Q9NR97 27-1041): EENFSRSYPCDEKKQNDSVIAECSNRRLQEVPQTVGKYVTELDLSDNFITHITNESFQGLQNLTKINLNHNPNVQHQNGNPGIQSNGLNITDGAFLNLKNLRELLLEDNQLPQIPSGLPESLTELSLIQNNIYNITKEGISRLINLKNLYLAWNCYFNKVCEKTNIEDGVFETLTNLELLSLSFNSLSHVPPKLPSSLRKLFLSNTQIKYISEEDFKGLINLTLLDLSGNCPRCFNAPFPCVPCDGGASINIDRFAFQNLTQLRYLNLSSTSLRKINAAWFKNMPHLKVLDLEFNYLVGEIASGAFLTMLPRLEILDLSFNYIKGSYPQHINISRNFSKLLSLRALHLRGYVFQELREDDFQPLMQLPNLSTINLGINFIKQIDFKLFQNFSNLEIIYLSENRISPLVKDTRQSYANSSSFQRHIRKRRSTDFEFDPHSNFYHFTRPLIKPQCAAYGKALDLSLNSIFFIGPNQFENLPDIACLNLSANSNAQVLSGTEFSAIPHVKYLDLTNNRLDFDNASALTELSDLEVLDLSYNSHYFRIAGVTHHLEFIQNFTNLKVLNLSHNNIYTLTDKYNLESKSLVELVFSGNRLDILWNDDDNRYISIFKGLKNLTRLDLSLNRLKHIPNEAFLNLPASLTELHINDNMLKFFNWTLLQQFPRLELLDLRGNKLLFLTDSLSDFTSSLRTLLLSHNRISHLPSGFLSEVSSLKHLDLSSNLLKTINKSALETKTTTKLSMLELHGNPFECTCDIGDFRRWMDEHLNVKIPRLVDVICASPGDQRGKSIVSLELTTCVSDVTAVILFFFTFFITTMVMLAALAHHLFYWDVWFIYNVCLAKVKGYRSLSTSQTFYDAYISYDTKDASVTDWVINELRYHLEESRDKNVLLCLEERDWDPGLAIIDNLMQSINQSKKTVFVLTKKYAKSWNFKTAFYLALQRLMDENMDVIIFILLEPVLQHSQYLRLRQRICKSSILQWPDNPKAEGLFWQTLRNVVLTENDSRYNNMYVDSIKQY
Put plainly: Human TLR8 agonist activity assay (measured in a similar manner). In kind it is cell-based. As to conditions: HEK-Blue TLR cells, SEAP reporter, measured in a similar manner to TLR7; some values average of multiple measurements. The protocol:
as §1
HEK-Blue™ TLR7 cells were added to each well of a 384-well tissue-culture plate (15,000 cells per well) and incubated 16-18 h at 37° C., 5% CO2. Compounds (100 nL) were dispensed into wells containing the HEK-Blue™ TLR cells and the treated cells were incubated at 37° C., 5% CO2. After 18 h, ten microliters 5 of freshly prepared Quanti-Blue™ reagent (Invivogen) was added to each well and incubated for 30 min (37° C., […]). SLAP levels were measured using an Envision plate reader (OD=620 nm). […] Some of the reported activities were the average of multiple measurements.
TLR8 activity was measured in a similar manner.

Regarding `CCCCN(CCO)c1nc(N)nc2cn(Cc3c(F)cc(CN[C@H]4CC[C@H](O)CC4)cc3OC)nc12` [Compound 93], the half-maximal effective concentration (EC50) on human TLR7 (hTLR7) turned out to be 2580 nM; on human TLR8 (hTLR8), 1910 nM.
For `CCCCN(CCO)c1nc(N)nc2cn(Cc3c(F)cc(CN[C@@H]4CCOC4)cc3OC)nc12` [Compound 75] the same measures were 370 nM and 670 nM.
On to `CCCCN(CCO)c1nc(N)nc2cn(Cc3ccc(CN[C@@H]4CCOC4)cc3)nc12` [Compound 157], for which the concentration for a half-maximal effect (EC50) at human TLR7 (hTLR7) came to 1160 nM; on human TLR8 (hTLR8), 460 nM.
Taken in the same sequence, the figures for `CCCCN(c1nc(N)nc2cn(Cc3ccc(CN4CCCCC4)cc3OC)nc12)C(C)CO` (single isomer, unassigned) [Compound 49-1, 2-((5-amino-2-(2-methoxy-4-(piperidin-1-ylmethyl)benzyl)-2H-pyrazolo[4,3-d]pyrimidin-7-yl)(butyl)amino)propan-1-ol] were 374 nM and 949 nM.
Taken in the same sequence, the figures for `CCCCN(CCO)c1nc(N)nc2cn(Cc3c(F)cc(C4CCN(CCS(C)(=O)=O)CC4)cc3OC)nc12` [Compound 42] were 101 nM and 496 nM.
Consider `CCCCN(CCO)c1nc(N)nc2cn(Cc3ccc(CNC4CC(O)C4)cc3OC)nc12` (stereo not shown) [Compound 29], for which the concentration giving a half-maximal response (EC50) at human TLR7 (hTLR7) and on human TLR8 (hTLR8) was 2500 nM each time.
On to `CCCCN(CCO)c1nc(N)nc2cn(Cc3ccc(CN[C@H]4CCOC4)cc3C(F)F)nc12` [Compound 99], for which the results for the EC50 at human TLR7 (hTLR7) and at human TLR8 (hTLR8) were 1910 nM and 1580 nM, respectively.
Taken in the same sequence, the figures for `CCCCN(CCO)c1nc(N)nc2cn(Cc3ncc(CNC(C)(C)C)cc3OC)nc12` [Compound 201] were 1350 nM and 3140 nM.
For `CCCCN(c1nc(N)nc2cn(Cc3ccc(CN4CCCCC4)cc3OC)nc12)C(C)CO` (single isomer, unassigned) [Compound 49-2, 2-((5-amino-2-(2-methoxy-4-(piperidin-1-ylmethyl)benzyl)-2H-pyrazolo[4,3-d]pyrimidin-7-yl)(butyl)amino)propan-1-ol] the same measures were 385 nM and 682 nM.
As to `CCCCN(CCO)c1nc(N)nc2cn(Cc3ccc(CNC[C@H]4C[C@H](O)C4)cc3OC)nc12` [Compound 23], the EC50 on human TLR7 (hTLR7) came to 1910 nM; at human TLR8 (hTLR8) it was 1900 nM.
Taken in the same sequence, the figures for `CCCCN(CCO)c1nc(N)nc2cn(Cc3ccc(CNC4CCOCC4)c4scnc34)nc12` [Compound 180, 2-((5-Amino-2-((7-(((tetrahydro-2H-pyran-4-yl)amino)methyl)benzo[d]thiazol-4-yl)methyl)-2H-pyrazolo[4,3-d]pyrimidin-7-yl)(butyl)amino)ethan-1-ol] were 294 nM and 230 nM.
With `CCCCN(CCO)c1nc(N)nc2cn(Cc3ccc(CN4CC(CCO)C4)c4cccnc34)nc12` [Compound 62], the EC50 on human TLR7 (hTLR7) turned out to be 1310 nM; at human TLR8 (hTLR8), 675 nM.
Regarding `CCCCN(CCO)c1nc(N)nc2cn(Cc3ccc(CNC4CCC4)cc3NC)nc12` [Compound 102], the 50% effective concentration (EC50) at human TLR7 (hTLR7) was found to be 2190 nM; on human TLR8 (hTLR8) it was 1800 nM.
For `CCCCN(CCO)c1nc(N)nc2cn(Cc3cc(OC)c(C4CCN(C5CC6(COC6)C5)CC4)cc3OC)nc12` [Compound 109] the same measures were 1460 nM and 1990 nM.
For the compound `CCCCN(CCO)c1nc(N)nc2cn(Cc3cc(OC)c(C4CCN(CC(C)(C)O)CC4)cc3OC)nc12` [Compound 107], the half-maximal effective concentration (EC50) on human TLR7 (hTLR7) came to 1280 nM; on human TLR8 (hTLR8), 3030 nM.
Taken in the same sequence, the figures for `CCCCN(CCO)c1nc(N)nc2cn(Cc3ccc(CN[C@H]4CCOC4)cc3OC)nc12` [Compound 52] were 1190 nM and 1070 nM.
`CCCCN(CCO)c1nc(N)nc2cn(Cc3c(F)cc(N4CCC(N[C@@H]5CCOC5)CC4)cc3F)nc12` [Compound 96]: the values for the 50% effective concentration (EC50) at human TLR7 (hTLR7) and at human TLR8 (hTLR8) were 540 nM and 1990 nM, respectively.
Consider `CCCCN(CCO)c1nc(N)nc2cn(Cc3ccc(CNC4CCCC4)c4cccnc34)nc12` [Compound 61], for which the EC50 at human TLR7 (hTLR7) was determined as 1500 nM; at human TLR8 (hTLR8), 952 nM.
Taken in the same sequence, the figures for `CCCCN(CCO)c1nc(N)nc2cn(Cc3ccc(CNCCOC)c4nccnc34)nc12` [Compound 208] were 1890 nM and 1270 nM.
Taken in the same sequence, the figures for `CCCCN(CCO)c1nc(N)nc2cn(Cc3ccc(CNC4CCOCC4)c4cccnc34)nc12` [Compound 58] were 757 nM and 488 nM.
`CCCCN(CCO)c1nc(N)nc2cn(Cc3c(F)cc(C4=CCC(NCCOC)CC4)cc3OC)nc12` (stereo not shown) [Compound 193]: the concentration for a half-maximal effect (EC50) turned out to be 333 nM at human TLR7 (hTLR7) and 1080 nM at human TLR8 (hTLR8).
Taken in the same sequence, the figures for `CCCCN(CCO)c1nc(N)nc2cn(Cc3c(F)cc(CNCC4(CO)CC4)cc3OC)nc12` [Compound 92] were 1330 nM and 2110 nM.
Taken in the same sequence, the figures for `CCCCN(CCO)c1nc(N)nc2cn(Cc3ccc(CN[C@H]4CCOC4)c4c3OCCC4)nc12` [Compound 136, (S)-2-((5-Amino-2-((5-(((tetrahydrofuran-3-yl)amino)methyl)chroman-8-yl)methyl)-2H-pyrazolo[4,3-d]pyrimidin-7-yl)(butyl)amino) ethan-1-ol] were 861 nM and 360 nM.
For `CCCCN(CCO)c1nc(N)nc2cn(Cc3ccc(CN4CCOCC4)cc3OC)nc12` [Compound 18] the same measures were 380 nM and 447 nM.
Regarding `CCCCN(CCO)c1nc(N)nc2cn(Cc3ccc(CNCCCC4CC4)c4cccnc34)nc12` [Compound 63], the EC50 at human TLR7 (hTLR7) amounted to 915 nM; on human TLR8 (hTLR8) it was 736 nM.
For `CCCCN(CCO)c1nc(N)nc2cn(Cc3ccc(CNCC)cc3OC)nc12` [Compound 17] the same measures were 1150 nM and 745 nM.

What is called EC50 is the concentration needed to bring the measured effect to its halfway point. Read a low EC50 as higher potency in that assay.
